The IC50 is the point on the concentration scale where inhibition reaches its midpoint.

One assay deals with T1, PTGER4 (EP4) (Homo sapiens, UniProt P35408).
T1 construct: host or cells: HEK 293 (PathHunter PTGER4 b-arrestin cell line)
Description: hEP4 b-arrestin assay (PathHunter HEK 293 PTGER4 b-arrestin cells). To be noted: antagonistic activity, beta-arrestin assay; read-out: hEP4 b-arr IC50. Type of assay: cell-based. On the procedure: (§1) The antagonistic activities of the compounds of formula (I) on the EP2 and EP4 receptors are determined in accordance with the following experimental method.
(§2) The assay is using the PathHunter™ HEK 293 PTGER2 and PTGER4 b-arrestin cell lines from DiscoverX. The system is based on the Enzyme Fragment Complementation Technology. Two complementing fragments of the b-galactosidase enzyme are expressed within stably transfected cells. The larger portion of b-gal, termed EA for Enzyme Acceptor, is fused to the C-terminus of b-arrestin 2. The smaller fragment, termed ProLink™ tag, is fused to PTGER2 (EP2) or PTRGER4 (EP4) at the C-terminus. Upon activation, b-arrestin is recruited which forces the interaction of ProLink and EA, allowing complementation of the two fragments of b-gal and the formation of a functional enzyme which is capable of hydrolysing the substrate and generating a chemiluminescent signal.
The HEK 293 PTGER4 b-arrestin cells (DiscoverX 93-030-4C1) are detached from culture dishes with a cell dissociation buffer (Invitrogen, 13151-014), and collected in growing medium (GM: DMEM+Glutamax-I (Invitrogen 32430)/10% FCS, 1% Penicilin/streptomycin). 5000 cells per well of a 384 well plate (white with white bottom Greiner 781080) are seeded in 20 ul per well of GM. Plate is incubated at 37° C., 5% C02 for 24 hours.
(§3) Stock solutions of test compounds are made at a concentration of 10 mM in DMSO, and serially diluted in DMSO to concentrations required for inhibition dose response curves (tested concentration range 10 μM-2 nM or 1 μM-0.2 nM).
PGE2 (Cayman 14010, stock solution: 100 uM in DMSO) is used as agonist at 20 nM final concentration, corresponding to EC80.
Five microliters of diluted compounds are transferred into the assay plate. Plate is pre-incubated 15 minutes at 37° C. Then five microliters of PGE2 (final conc. 20 nM) are transferred into the assay plate. Plate is incubated 120 minutes at 37° C.
(§4) PathHunter Glo Detection Kit components are thawed and mix according to manufacturer's instructions: 1 part Galacton Star Substrate with 5 parts Emerald II™ Solution, and 19 parts of PathHunter Cell Assay Buffer, respectively. Twelve μl of reagent are transferred to the assay plate and incubate for 1 hour at room temperature in the dark. Luminescence counts are read on a BMG Fluostar Optima reader according to manufacturer's instructions.
(§5) For each compound concentration calculate of the percentage of activity compared to DMSO control value as average±STDEV. (each concentration is measured in duplicate)
(§6) IC50 values and curves are generated with XLfit software (IDBS) using Dose-Response One Site model 203. When compounds were measured multiple times, mean values are given.

The next assay addresses T2, PTGER2 (EP2) (Homo sapiens, UniProt P43116).
T2 construct: host or cells: HEK 293 (PathHunter PTGER2 b-arrestin cell line)
Briefly: hEP2 b-arrestin assay (PathHunter HEK 293 PTGER2 b-arrestin cells). Conditions: antagonistic activity, beta-arrestin assay; read-out: hEP2 b-arr IC50. Type of assay: cell-based. On the procedure:
as §1, §2
The HEK 293 PTGER2 b-arrestin cells (DiscoverX 93-021-4C1) are detached from culture dishes with a cell dissociation buffer (Invitrogen, 13151-014), and collected in growing medium (GM: DMEM+Glutamax-I (Invitrogen 32430)/10% FCS, 1% Penicilin/streptomycin). 5000 cells per well of a 384 well plate (white with white bottom Greiner 781080) are seeded in 20 ul per well of GM. Plate is incubated at 37° C., 5% C02 for 24 hours.
as §3
PGE2 (Cayman 14010, stock solution: 10 mM in DMSO) is used as agonist at 5 μM final concentration, corresponding to EC80.
Five microliters of diluted compounds are transferred into the assay plate. Plate is pre-incubated 15 minutes at 37° C. Then five microliters of PGE2 (final conc. 5 μM) are transferred into the assay plate. Plate is incubated 120 minutes at 37° C.
as §4, §5, §6

T1 sequence (P35408 whole entry): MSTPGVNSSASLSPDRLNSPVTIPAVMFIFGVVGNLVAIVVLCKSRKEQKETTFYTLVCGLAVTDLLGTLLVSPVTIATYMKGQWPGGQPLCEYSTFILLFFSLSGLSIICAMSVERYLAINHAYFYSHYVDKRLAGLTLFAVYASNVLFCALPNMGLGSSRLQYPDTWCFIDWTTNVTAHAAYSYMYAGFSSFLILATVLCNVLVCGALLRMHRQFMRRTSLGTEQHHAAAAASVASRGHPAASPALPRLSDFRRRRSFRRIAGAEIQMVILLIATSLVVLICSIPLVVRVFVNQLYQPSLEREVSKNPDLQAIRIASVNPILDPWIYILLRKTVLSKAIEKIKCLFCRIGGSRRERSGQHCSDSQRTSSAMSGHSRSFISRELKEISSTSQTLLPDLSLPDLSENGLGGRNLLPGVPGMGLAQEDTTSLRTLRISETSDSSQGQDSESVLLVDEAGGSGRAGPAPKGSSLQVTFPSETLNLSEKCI
T2 sequence (P43116 whole entry): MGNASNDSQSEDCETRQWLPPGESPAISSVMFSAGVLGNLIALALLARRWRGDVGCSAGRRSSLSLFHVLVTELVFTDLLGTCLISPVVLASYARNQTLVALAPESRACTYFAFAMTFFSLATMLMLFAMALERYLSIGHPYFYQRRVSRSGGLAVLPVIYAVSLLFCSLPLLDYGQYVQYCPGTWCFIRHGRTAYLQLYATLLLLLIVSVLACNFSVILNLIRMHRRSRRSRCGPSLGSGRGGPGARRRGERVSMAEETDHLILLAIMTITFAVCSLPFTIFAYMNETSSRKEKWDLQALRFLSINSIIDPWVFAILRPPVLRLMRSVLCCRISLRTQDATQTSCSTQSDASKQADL

Take `Cc1sc2c(C)cc(F)cc2c1CCNc1cc(-c2ccc(/C=C/C(=O)O)cc2)ncn1` [Example 204, (E)-3-(4-{6-[2-(5-Fluoro-2,7-dimethyl-benzo[b]thiophen-3-yl)-ethylamino]-pyrimidin-4-yl}-phenyl)-acrylic acid]: the IC50 is 1030 nM at PTGER4 (EP4) and 108 nM at PTGER2 (EP2).

Consider `Cc1[nH]c(-c2cc(NCCc3c(C)sc4c(C)cc(F)cc34)ncn2)cc1C(=O)O` [Example 205, 5-{6-[2-(5-Fluoro-2,7-dimethyl-benzo[b]thiophen-3-yl)-ethylamino]-pyrimidin-4-yl}-2-methyl-1 H-pyrrole-3-carboxylic acid], for which the IC50 at PTGER4 (EP4) was found to be 771 nM; on PTGER2 (EP2), 74 nM.

For `CCCc1cc(-c2cc(NCCc3c(C)sc4c(C)cc(F)cc34)ncn2)ccc1C(N)=O` [Example 206, 4-{6-[2-(5-Fluoro-2,7-dimethyl-benzo[b]thiophen-3-yl)-ethylamino]-pyrimidin-4-yl}-2-propyl-benzamide], the IC50 was determined as 288 nM on PTGER4 (EP4) and 10 nM at PTGER2 (EP2).

Consider `CCCc1cc(-c2cc(NCCc3c(C)sc4c(C)cc(F)cc34)ncn2)ccc1C(=O)NCC(C)(C)O` [Example 207, 4-{6-[2-(5-Fluoro-2,7-dimethyl-benzo[b]thiophen-3-yl)-ethylamino]-pyrimidin-4-yl}-N-(2-hydroxy-2-methyl-propyl)-2-propyl-benzamide], for which the IC50 is 335 nM at PTGER4 (EP4) and 26 nM at PTGER2 (EP2).

On to `CCCc1cc(-c2cc(NCCc3c(C)sc4c(C)cc(F)cc34)ncn2)ccc1C(=O)NCCOC` [Example 208, 4-{6-[2-(5-Fluoro-2,7-dimethyl-benzo[b]thiophen-3-yl)-ethylamino]-pyrimidin-4-yl}-N-(2-methoxy-ethyl)-2-propyl-benzamide], for which the IC50 at PTGER4 (EP4) is 837 nM; on PTGER2 (EP2), 62 nM.

`CCCc1cc(-c2cc(NCCc3c(C)sc4c(C)cc(F)cc34)ncn2)ccc1C(=O)NCCO` [Example 209, 4-{6-[2-(5-Fluoro-2,7-dimethyl-benzo[b]thiophen-3-yl)-ethylamino]-pyrimidin-4-yl}-N-(2-hydroxy-ethyl)-2-propyl-benzamide]: the half-inhibitory concentration (IC50) at PTGER4 (EP4) stood at 280 nM; on PTGER2 (EP2) it was 8 nM.

In the case of `CCCc1cc(-c2cc(NCCc3c(C)sc4c(C)cc(F)cc34)ncn2)ccc1C(=O)NC` [Example 210, 4-{6-[2-(5-Fluoro-2,7-dimethyl-benzo[b]thiophen-3-yl)-ethylamino]-pyrimidin-4-yl}-N-methyl-2-propyl-benzamide], the figures for the IC50 at PTGER4 (EP4) and on PTGER2 (EP2) were 469 nM and 19 nM, respectively.

Turning to `CCOc1cc(-c2cc(NCCc3c(C)sc4c(C)cc(F)cc34)ncn2)ccc1C(=O)NCCO` [Example 211, 2-Ethoxy-4-{6-[2-(5-fluoro-2,7-dimethyl-benzo[b]thiophen-3-yl)-ethylamino]-pyrimidin-4-yl}-N-(2-hydroxy-ethyl)-benzamide], the values for the IC50 at PTGER4 (EP4) and at PTGER2 (EP2) were 367 nM and 30 nM, respectively.

On to `CCOc1cc(-c2cc(NCCc3c(C)sc4c(C)cc(F)cc34)ncn2)ccc1C(=O)NC` [Example 212, 2-Ethoxy-4-{6-[2-(5-fluoro-2,7-dimethyl-benzo[b]thiophen-3-yl)-ethylamino]-pyrimidin-4-yl}-N-methyl-benzamide], for which the figures for the IC50 at PTGER4 (EP4) and on PTGER2 (EP2) were 667 nM and 11 nM, respectively.

Regarding `CCOc1cc(-c2cc(NCCc3c(C)sc4c(C)cc(F)cc34)ncn2)ccc1C(N)=O` [Example 213, 2-Ethoxy-4-{6-[2-(5-fluoro-2,7-dimethyl-benzo[b]thiophen-3-yl)-ethylamino]-pyrimidin-4-yl}-benzamide], the results for the IC50 on PTGER4 (EP4) and at PTGER2 (EP2) were 405 nM and 10 nM, respectively.

In the case of `Cc1sc2c(C)cc(F)cc2c1CCNc1cc(-c2cnn(C(C)(C)C(=O)O)c2)ncn1` [Example 214, 2-(4-{6-[2-(5-Fluoro-2,7-dimethyl-benzo[b]thiophen-3-yl)-ethylamino]-pyrimidin-4-yl}-pyrazol-1-yl)-2-methyl-propionic acid], the IC50 on PTGER4 (EP4) turned out to be 388 nM; at PTGER2 (EP2), 237 nM.

As to `CCOc1cc(-c2cc(NCCc3c(C)sc4c(C)cc(F)cc34)ncn2)ccc1C1(C(=O)O)CC1` [Example 215, 1-(2-Ethoxy-4-{6-[2-(5-fluoro-2,7-dimethyl-benzo[b]thiophen-3-yl)-ethylamino]-pyrimidin-4-yl}-phenyl)-cyclopropanecarboxylic acid], the results for the IC50 on PTGER4 (EP4) and on PTGER2 (EP2) were 151 nM and 143 nM, respectively.

For `CCOc1c(CC(=O)O)ccc(-c2cc(NCCc3c(C)sc4c(C)cc(F)cc34)ncn2)c1F` [Example 216, (2-Ethoxy-3-fluoro-4-{6-[2-(5-fluoro-2,7-dimethyl-benzo[b]thiophen-3-yl)-ethylamino]-pyrimidin-4-yl}-phenyl)-acetic acid], the IC50 at PTGER4 (EP4) stood at 234 nM; at PTGER2 (EP2), 41 nM.

Turning to `CCOc1cc(-c2cc(NCCc3c(C)sc4c(C)cc(F)cc34)ncn2)c(F)cc1CC(=O)O` [Example 217, (2-Ethoxy-5-fluoro-4-{6-[2-(5-fluoro-2,7-dimethyl-benzo[b]thiophen-3-yl)-ethylamino]-pyrimidin-4-yl}-phenyl)-acetic acid], the IC50 amounted to 847 nM on PTGER4 (EP4) and 126 nM on PTGER2 (EP2).

Regarding `CCCc1cc(-c2cc(NCCc3c(C)sc4c(C)cc(F)cc34)ncn2)ccc1C1(C(=O)O)CC1` [Example 218, 1-(4-{6-[2-(5-Fluoro-2,7-dimethyl-benzo[b]thiophen-3-yl)-ethylamino]-pyrimidin-4-yl}-2-propyl-phenyl)-cyclopropanecarboxylic acid], the IC50 at PTGER4 (EP4) came out at 143 nM; at PTGER2 (EP2) it was 95 nM.

In the case of `CCCc1cc(-c2cc(NCCc3c(C)sc4c(C)cc(F)cc34)ncn2)sc1CC(=O)O` [Example 219, (5-{6-[2-(5-Fluoro-2,7-dimethyl-benzo[b]thiophen-3-yl)-ethylamino]-pyrimidin-4-yl}-3-propyl-thiophen-2-yl)-acetic acid], the results for the IC50 at PTGER4 (EP4) and at PTGER2 (EP2) were 211 nM and 41 nM, respectively.

For the compound `Cc1sc2c(C)cc(F)cc2c1CCNc1cc(-c2cc(OC(F)F)c(CC(=O)O)s2)ncn1` [Example 220, (3-Difluoromethoxy-5-{6-[2-(5-fluoro-2,7-dimethyl-benzo[b]thiophen-3-yl)-ethylamino]-pyrimidin-4-yl}-thiophen-2-yl)-acetic acid], the figures for the IC50 at PTGER4 (EP4) and at PTGER2 (EP2) were 407 nM and 44 nM, respectively.

With `Cc1sc2c(C)cc(F)cc2c1CCNc1cc(-c2cc3cccc(C(=O)O)c3[nH]2)ncn1` [Example 221, 2-{6-[2-(5-Fluoro-2,7-dimethyl-benzo[b]thiophen-3-yl)-ethylamino]-pyrimidin-4-yl}-1H-indole-7-carboxylic acid], the IC50 at PTGER4 (EP4) was 908 nM; on PTGER2 (EP2), 24 nM.

Turning to `Cc1sc2c(C)cc(F)cc2c1CCNc1cc(-c2cc3cccc(C(=O)O)c3s2)ncn1` [Example 222, 2-{6-[2-(5-Fluoro-2,7-dimethyl-benzo[b]thiophen-3-yl)-ethylamino]-pyrimidin-4-yl}-benzo[b]thiophene-7-carboxylic acid], the IC50 at PTGER4 (EP4) is 453 nM; on PTGER2 (EP2), 14 nM.

As for `COc1cc(-c2cc(NCCc3c(C)sc4c(C)cc(F)cc34)ncn2)ccc1CCC(=O)O` [Example 223, 3-(4-{6-[2-(5-Fluoro-2,7-dimethyl-benzo[b]thiophen-3-yl)-ethylamino]-pyrimidin-4-yl}-2-methoxy-phenyl)-propionic acid], the IC50 on PTGER4 (EP4) came out at 487 nM; at PTGER2 (EP2), 35 nM.
